Legend:
[1] = molecular target: T1, Progesterone receptor (Homo sapiens) (UniProt P06401); test: Relative binding affinity for human progesterone receptor in MCF-7 cell cytosols compared to Org 2058; type: cell-based
T1 sequence (whole entry): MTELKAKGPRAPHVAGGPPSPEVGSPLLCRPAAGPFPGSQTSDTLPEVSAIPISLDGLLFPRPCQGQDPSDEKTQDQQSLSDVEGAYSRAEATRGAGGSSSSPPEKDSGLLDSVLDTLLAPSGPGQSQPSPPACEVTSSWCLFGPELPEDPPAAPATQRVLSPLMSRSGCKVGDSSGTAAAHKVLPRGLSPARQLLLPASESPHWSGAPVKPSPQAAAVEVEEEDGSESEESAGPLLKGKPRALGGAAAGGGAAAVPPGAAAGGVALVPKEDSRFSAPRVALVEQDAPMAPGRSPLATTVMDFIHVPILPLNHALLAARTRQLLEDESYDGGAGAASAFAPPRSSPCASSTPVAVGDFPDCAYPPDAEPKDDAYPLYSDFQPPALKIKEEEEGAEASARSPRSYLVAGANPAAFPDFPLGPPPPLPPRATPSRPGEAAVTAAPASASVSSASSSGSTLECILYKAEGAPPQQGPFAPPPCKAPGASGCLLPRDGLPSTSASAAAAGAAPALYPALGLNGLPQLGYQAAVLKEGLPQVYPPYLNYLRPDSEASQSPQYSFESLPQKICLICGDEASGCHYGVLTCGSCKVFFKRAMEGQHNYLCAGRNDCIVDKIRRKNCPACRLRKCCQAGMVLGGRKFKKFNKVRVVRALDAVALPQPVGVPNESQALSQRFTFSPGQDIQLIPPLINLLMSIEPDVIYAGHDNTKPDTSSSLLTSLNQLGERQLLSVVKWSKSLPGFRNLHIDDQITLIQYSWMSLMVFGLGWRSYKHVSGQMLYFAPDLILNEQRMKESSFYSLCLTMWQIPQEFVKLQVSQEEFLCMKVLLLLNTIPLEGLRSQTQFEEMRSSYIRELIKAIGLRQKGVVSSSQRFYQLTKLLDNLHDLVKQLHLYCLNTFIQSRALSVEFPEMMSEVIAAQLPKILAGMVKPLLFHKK

[2] = Ratio of compound to that of glucocorticoid receptor binding and progesterone receptor binding was determined

Row | Compound | Affinity [1] [%] | Ratio [2]
1 | C[C@]12C[C@H](c3ccc4c(c3)OCO4)C3=C4CCC(=O)C=C4CCC3C1CC[C@@]2(O)C#Cc1ccc(S(C)(=O)=O)cc1 (some centres undefined) | 0.4 | 488
2 | C[C@]12C[C@H](c3ccc4c(c3)OCCO4)C3=C4CCC(=O)C=C4CCC3C1CC[C@@]2(O)C#Cc1ccc(N2CCCC2=O)cc1 (some centres undefined) | 0.2 | 490
3 | CN(C)c1ccc(/C=C/[C@]2(O)CCC3C4CCC5=CC(=O)CCC5=C4[C@@H](c4ccc(N(C)C)cc4)C[C@@]32C)cc1 (some centres undefined) | 6.1 | 1

Other lines, results leading:

Row | Affinity [1] [%] | Ratio [2] | Compound
4 | 1.7 | 49 | CN(C)c1ccc(C#C[C@]2(O)CCC3C4CCC5=CC(=O)CCC5=C4[C@@H](c4ccc(N(C)C)cc4)C[C@@]32C)cc1 (some centres undefined)
5 | 16 | 6 | CN(C)c1ccc([C@H]2C[C@@]3(C)C(CC[C@@]3(O)C#Cc3ccccc3)C3CCC4=CC(=O)CCC4=C32)cc1 (some centres undefined)
6 | 2 | 44 | CN(C)c1ccc([C@H]2C[C@@]3(C)C(CC[C@@]3(O)C#Cc3ccc(S(C)(=O)=O)cc3)C3CCC4=CC(=O)CCC4=C32)cc1 (some centres undefined)
7 | 36 | 5.4 | CC#C[C@]1(O)CC[C@H]2[C@@H]3CCC4=CC(=O)CCC4=C3[C@@H](c3ccc(N(C)C)cc3)C[C@@]21C
